Reference: patent US20100092526A1, “NANOEMULSION THERAPEUTIC COMPOSITIONS AND METHODS OF USING THE SAME” (NanoBio Corporation, priority 2008, published 2010)

How the values were obtained:
[1] = system: Pseudomonas aeruginosa; assay: MIC/MBC of nanoemulsions against gram-negative isolates (CLSI, alamar blue); format: cell-based; settings: Pseudomonas aeruginosa (n = 5)
[2] = system: Burkholderia cenocepacia; assay: MIC/MBC against CF isolates (CLSI, alamar blue)
[3] = system: Pseudomonas aeruginosa; assay: MIC/MBC against CF isolates (CLSI, alamar blue)
[4] = system: Burkholderia cepacia; assay: MIC/MBC of nanoemulsions against gram-negative isolates (CLSI, alamar blue); format: cell-based; settings: Burkholderia cepacia (n = 5); nanoemulsions in the presence of 5 mM EDTA; in µg/mL
[5] = system: Stenotrophomonas maltophilia; assay: as above; format: cell-based; settings: Stenotrophomonas maltophilia (n = 5); nanoemulsions in the presence of 5 mM EDTA
[6] = system: Proteus mirabilis; assay: as above; format: cell-based; settings: Proteus mirabilis (n = 5), nanoemulsions in the presence of 5 mM EDTA
[7] = system: Klebsiella pneumoniae; assay: as above; format: cell-based; settings: Klebsiella pneumoniae (n = 5), nanoemulsions in the presence of 5 mM EDTA
[8] = system: Acinetobacter baumannii; assay: as above; format: cell-based; settings: Acinetobacter baumannii (n = 5)
[9] = system: Stenotrophomonas maltophilia; assay: MIC/MBC against CF isolates (CLSI, alamar blue)
[10] = system: Acinetobacter baumannii; assay: MIC/MBC against clinical isolates (CLSI, alamar blue)
[11] = system: Escherichia coli; assay: MIC/MBC of nanoemulsions against gram-negative isolates (CLSI, alamar blue); format: cell-based; settings: Escherichia coli (n = 5), nanoemulsions in the presence of 5 mM EDTA
[12] = nanoemulsions in the presence of 5 mM EDTA
[13] = B. cenocepacia, NE with 5 mM EDTA
[14] = P. aeruginosa, NE with 5 mM EDTA
[15] = 11 CF Stenotrophomonas isolates
[16] = CF Stenotrophomonas isolate NB41
[17] = CF Stenotrophomonas isolate NB42
[18] = CF Stenotrophomonas isolate NB43
[19] = CF Stenotrophomonas isolate NB44
[20] = CF Stenotrophomonas isolate NB45
[21] = CF Stenotrophomonas isolate Steno 1
[22] = CF Stenotrophomonas isolate Steno 2
[23] = CF Stenotrophomonas isolate Steno 3
[24] = CF Stenotrophomonas isolate Steno 4
[25] = CF Stenotrophomonas isolate Steno 6
[26] = CF Stenotrophomonas isolate Steno 8
[27] = S. maltophilia, NE with 1 mM EDTA
[28] = Stenotrophomonas, each drug alone
[29] = A. baumannii, NE with 1 mM EDTA

## Colistin
[1]
  % resistant: 0.0%
  % susceptible: 100.0%
[1]; [12]
  MIC50: 1 µg/mL
  MIC Range: <=0.5-2 ^
[2]; 10 CF Burkholderia isolates
  MBC 50: >32 µg/mL
  MBC 90: >32 µg/mL
  MIC50: >32 µg/mL
  MIC90: >32 µg/mL
[2]; [13]
  MBC 90: > 32 µg/mL
  MIC90: > 32 µg/mL
[2]; Burkholderia, each drug alone
  MBC 50: >32 µg/mL
  MBC 90: >32 µg/mL
  MIC50: >32 µg/mL
  MIC90: >32 µg/mL
[2]; CF Burkholderia isolate NB21
  MBC: >32 µg/mL
  MIC: >32 µg/mL
[2]; CF Burkholderia isolate NB22
  MBC: >32 µg/mL
  MIC: >32 µg/mL
[2]; CF Burkholderia isolate NB23
  MBC: >32 µg/mL
  MIC: >32 µg/mL
[2]; CF Burkholderia isolate NB24
  MBC: >32 µg/mL
  MIC: >32 µg/mL
[2]; CF Burkholderia isolate NB25
  MBC: >32 µg/mL
  MIC: >32 µg/mL
[2]; CF Burkholderia isolate NB26
  MBC: >32 µg/mL
  MIC: 32 µg/mL
[2]; CF Burkholderia isolate NB27
  MBC: >32 µg/mL
  MIC: >32 µg/mL
[2]; CF Burkholderia isolate NB28b
  MBC: >32 µg/mL
  MIC: >32 µg/mL
[2]; CF Burkholderia isolate NB29
  MBC: >32 µg/mL
  MIC: >32 µg/mL
[2]; CF Burkholderia isolate NB30
  MBC: >32 µg/mL
  MIC: >32 µg/mL
[3]; 20 CF Pseudomonas isolates
  MBC 50: 4 µg/mL
  MBC 90: 8 µg/mL
  MIC50: 2 µg/mL
  MIC90: 2 µg/mL
[3]; CF Pseudomonas isolate NB1
  MBC: >8 µg/mL
  MIC: 2 µg/mL
[3]; CF Pseudomonas isolate NB2
  MBC: 8 µg/mL
  MIC: 1 µg/mL
[3]; CF Pseudomonas isolate NB3
  MBC: 8 µg/mL
  MIC: 1 µg/mL
[3]; CF Pseudomonas isolate NB4
  MBC: 4 µg/mL
  MIC: 2 µg/mL
[3]; CF Pseudomonas isolate NB5
  MBC: 8 µg/mL
  MIC: 2 µg/mL
[3]; CF Pseudomonas isolate NB6
  MBC: 4 µg/mL
  MIC: 2 µg/mL
[3]; CF Pseudomonas isolate NB7
  MBC: 4 µg/mL
  MIC: 2 µg/mL
[3]; CF Pseudomonas isolate NB8
  MBC: 8 µg/mL
  MIC: 2 µg/mL
[3]; CF Pseudomonas isolate NB9
  MBC: 8 µg/mL
  MIC: 2 µg/mL
[3]; CF Pseudomonas isolate NB10
  MBC: 2 µg/mL
  MIC: 2 µg/mL
[3]; CF Pseudomonas isolate NB11
  MBC: 4 µg/mL
  MIC: 1 µg/mL
[3]; CF Pseudomonas isolate NB12
  MBC: 8 µg/mL
  MIC: 4 µg/mL
[3]; CF Pseudomonas isolate NB13
  MBC: 8 µg/mL
  MIC: 2 µg/mL
[3]; CF Pseudomonas isolate NB14
  MBC: 4 µg/mL
  MIC: 2 µg/mL
[3]; CF Pseudomonas isolate NB15
  MBC: 8 µg/mL
  MIC: 2 µg/mL
[3]; CF Pseudomonas isolate NB16
  MBC: 4 µg/mL
  MIC: 2 µg/mL
[3]; CF Pseudomonas isolate NB17
  MBC: 4 µg/mL
  MIC: 1 µg/mL
[3]; CF Pseudomonas isolate NB18
  MBC: 4 µg/mL
  MIC: 1 µg/mL
[3]; CF Pseudomonas isolate NB19
  MBC: 4 µg/mL
  MIC: 2 µg/mL
[3]; CF Pseudomonas isolate NB20
  MBC: >8 µg/mL
  MIC: 2 µg/mL
[3]; [14]
  MBC 90: 8 µg/mL
  MIC90: 2 µg/mL
[3]; second MBC 50 line of the summary, Stenotrophomonas, values equal those of the CF Pseudomonas isolates
  MBC 50: 4 µg/mL
[3]; second MBC 90 line of the summary, Stenotrophomonas, values equal those of the CF Pseudomonas isolates
  MBC 90: 8 µg/mL
[4]
  MIC Range: >4
[5]
  MIC50: ≤ 0.5 µg/mL
  MIC Range: <=0.5-1 ^
[6]
  MIC50: > 4 µg/mL
[6]; in µg/mL
  MIC Range: >4
[7]
  MIC50: ≤ 0.5 µg/mL
[7]; in µg/mL
  MIC Range: <=0.5
[8]
  % resistant: 0.0%
  % susceptible: 100.0%
[8]; [12]
  MIC50: ≤ 0.5 µg/mL
  MIC Range: <=0.5-2 ^
[9]; [15]
  MBC 50: >32 µg/mL
  MBC 90: >32 µg/mL
  MIC50: 16 µg/mL
  MIC90: >32 µg/mL
[9]; [16]
  MBC: 32 µg/mL
  MIC: 2 µg/mL
[9]; [17]
  MBC: 8 µg/mL
  MIC: 2 µg/mL
[9]; [18]
  MBC: >32 µg/mL
  MIC: 16 µg/mL
[9]; [19]
  MBC: >32 µg/mL
  MIC: 32 µg/mL
[9]; [20]
  MBC: 16 µg/mL
  MIC: 8 µg/mL
[9]; [21]
  MBC: >32 µg/mL
  MIC: >32 µg/mL
[9]; [22]
  MBC: >32 µg/mL
  MIC: 32 µg/mL
[9]; [23]
  MBC: >32 µg/mL
  MIC: >32 µg/mL
[9]; [24]
  MBC: 4 µg/mL
  MIC: 1 µg/mL
[9]; [25]
  MBC: >32 µg/mL
  MIC: 16 µg/mL
[9]; [26]
  MBC: 32 µg/mL
  MIC: 8 µg/mL
[9]; [27]
  MBC 90: > 32 µg/mL
  MIC90: > 32 µg/mL
[9]; [28]
  MBC 50: >32 µg/mL
  MBC 90: >32 µg/mL
  MIC50: 16 µg/mL
  MIC90: >32 µg/mL
[10]; 10 Acinetobacter isolates
  MBC 50: 4 µg/mL
  MBC 90: >16 µg/mL
  MIC50: 1 µg/mL
  MIC90: 1 µg/mL
[10]; [29]
  MBC 90: > 16 µg/mL
  MIC90: 1 µg/mL
[10]; Acinetobacter isolate NB31
  MBC: 1 µg/mL
  MIC: 1 µg/mL
[10]; Acinetobacter isolate NB32
  MBC: 8 µg/mL
  MIC: 1 µg/mL
[10]; Acinetobacter isolate NB33
  MBC: 4 µg/mL
  MIC: 1 µg/mL
[10]; Acinetobacter isolate NB34
  MBC: 1 µg/mL
  MIC: 1 µg/mL
[10]; Acinetobacter isolate NB35
  MBC: 4 µg/mL
  MIC: 1 µg/mL
[10]; Acinetobacter isolate NB36
  MBC: 1 µg/mL
  MIC: 1 µg/mL
[10]; Acinetobacter isolate NB37
  MBC: >16 µg/mL
  MIC: 1 µg/mL
[10]; Acinetobacter isolate NB38
  MBC: >16 µg/mL
  MIC: 1 µg/mL
[10]; Acinetobacter isolate NB39
  MBC: 8 µg/mL
  MIC: 1 µg/mL
[10]; Acinetobacter isolate NB40
  MBC: >16 µg/mL
  MIC: 1 µg/mL
[10]; Acinetobacter, each drug alone
  MBC 50: 4 µg/mL
  MBC 90: >16 µg/mL
  MIC50: 1 µg/mL
  MIC90: 1 µg/mL
[11]
  MIC50: ≤ 0.5 µg/mL
[11]; in µg/mL
  MIC Range: <=0.5
